In patent US8404847B2, “Method for producing diamine derivative” (Daiichi Sankyo Company, Limited, priority 2008, dated 2013):

Assays:
[1] = Solubility of compound A under crystallization conditions with varying amounts of TsOH.H2O (Test Example 1); assay type: physicochemical; details: ethanol having a water content of 10%, 10° C.
Method: The ordinate depicts the solubility (mg/ml) of compound A, and the abscissa depicts the molar equivalent of p-toluenesulfonic acid monohydrate (vs. compound B).
The solubility of compound A was determined using varying amounts of TsOH.H2O under conditions for crystallizing compound A (ethanol having a water content of 10%, 10° C.). Specifically, compound A, compound B, and TsOH.H2O were added in the combinations shown below to 10 ml of ethanol having a water content of 10%. The resulting slurry was stirred at 10° C., and crystals were collected by filtration. Then, the content of the compound A contained in the filtered mother liquor was measured by HPLC (column: Shiseido CAPCELL PAK CN UG120 (4.6×250 mm), column temperature: 40° C., flow rate: 1.0 ml/min., mobile phase: acetonitrile:0.02 M phosphate buffer (pH 7.0)=30:70).

[2] = Stability of compound B under dissolution conditions with varying amounts of TsOH.H2O (Test Example 2); assay type: physicochemical; details: ethanol having a water content of 30%, 70° C.
Method: FIG. 2 depicts time-dependent (hr; abscissa) change in the amount of compound B (%; ordinate) with the initial (0 hr) amount of compound B defined as 100%.
The stability of compound B was determined using varying amounts of TsOH.H2O under conditions for dissolving compound B in a solvent (ethanol having a water content of 30%, 70° C.). Specifically, 7 ml of ethanol having a water content of 30% and TsOH.H2O were added in combinations shown below to 1.0 g of compound B, followed by dissolution at 70° C. The content of the compound B was measured at constant time intervals by HPLC (column: Shiseido CAPCELL PAK CN UG120 (4.6×250 mm), column temperature: 40° C., flow rate: 1.0 ml/min., mobile phase: acetonitrile:0.02 M phosphate buffer (pH 7.0)=30:70).

solubility of compound A ([1]; TsOH.H2O larger than 1.00 molar equivalent with respect to compound B)	solubility of compound A ([1]; TsOH.H2O smaller than 1.00 molar equivalent with respect to compound B)	decomposition of compound B (decrease in compound B content) ([2]; TsOH.H2O at less than 1.0 molar equivalent (vs. compound B))	decomposition of compound B (decrease in compound B content) ([2]; TsOH.H2O at more than 1.0 molar equivalent (vs. compound B))	SMILES
reduced	increased			CN1CCc2nc(C(=O)N[C@@H]3C[C@@H](C(=O)N(C)C)CC[C@@H]3NC(=O)C(=O)Nc3ccc(Cl)cn3)sc2C1.Cc1ccc(S(=O)(=O)O)cc1.O [compound A, N^1-(5-chloropyridin-2-yl)-N^2-((1S,2R,4S)-4-[(dimethylamino)carbonyl]-2-{[(5-methyl-4,5,6,7-tetrahydrothiazolo[5,4-c]pyridin-2-yl)carbonyl]amino}cyclohexyl)ethanediamide p-toluenesulfonic acid monohydrate]
		suppressed	promoted with the excess	CN1CCc2nc(C(=O)N[C@@H]3C[C@@H](C(=O)N(C)C)CC[C@@H]3NC(=O)C(=O)Nc3ccc(Cl)cn3)sc2C1 [compound B, N^1-(5-chloropyridin-2-yl)-N^2-((1S,2R,4S)-4-[(dimethylamino)carbonyl]-2-{[(5-methyl-4,5,6,7-tetrahydrothiazolo[5,4-c]pyridin-2-yl)carbonyl]amino}cyclohexyl)ethanediamide]
